In PubChem BioAssay AID328 (DTP/NCI, 2004):
Several values for one entry are separate records, joined by “and”; a condition that tells them apart may be missing. Identical values can stand only once. Toxic doses and inconclusive results are not listed. How the source made its calls: active means survival T/C of 150% or more; inactive means T/C below 125% in these data.

Tested on: BDF1 mice, P388 leukemia ip, median survival T/C
Experiment: NCI In Vivo Anticancer Drug Screen. Data for tumor model P388 Leukemia (intraperitoneal) in B6D2F1 (BDF1) mice
Settings: endpoint: median survival time, higher = longer survival
Method in brief: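 Antitumour effect was judged in vivo: survival in drug-treated mice, normalised to that of vehicle-dosed controls, gives the reported T/C.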

[1] = dose: 50.0 mg/kg/injection, schedule: Q01DX009 (ip), vehicle: saline with Tween-80
[2] = dose: 100.0 mg/kg/injection, schedule: Q01DX009 (ip), vehicle: saline with Tween-80
[3] = dose: 200.0 mg/kg/injection, schedule: Q01DX009 (ip), vehicle: saline with Tween-80
[4] = dose: 50.0 mg/kg/injection, schedule: Q01DX009 (ip), vehicle: Klucel (hydroxypropylcellulose) (HPC)
[5] = dose: 100.0 mg/kg/injection, schedule: Q01DX009 (ip), vehicle: Klucel (hydroxypropylcellulose) (HPC)
[6] = dose: 200.0 mg/kg/injection, schedule: Q01DX009 (ip), vehicle: Klucel (hydroxypropylcellulose) (HPC)
[7] = dose: 200.0 mg/kg/injection, schedule: Q04DX003 (ip), vehicle: Klucel (hydroxypropylcellulose) (HPC)
[8] = dose: 50.0 mg/kg/injection, schedule: Q04DX003 (ip), vehicle: saline with Tween-80
[9] = dose: 100.0 mg/kg/injection, schedule: Q04DX003 (ip), vehicle: saline with Tween-80
[10] = dose: 200.0 mg/kg/injection, schedule: Q04DX003 (ip), vehicle: saline with Tween-80
[11] = dose: 400.0 mg/kg/injection, schedule: Q04DX003 (ip), vehicle: saline with Tween-80
[12] = dose: 100.0 mg/kg/injection, schedule: Q04DX003 (ip), vehicle: Klucel (hydroxypropylcellulose) (HPC)
[13] = dose: 400.0 mg/kg/injection, schedule: Q01DX009 (ip), vehicle: Klucel (hydroxypropylcellulose) (HPC)
[14] = dose: 400.0 mg/kg/injection, schedule: Q04DX003 (ip), vehicle: Klucel (hydroxypropylcellulose) (HPC)

Measured: T/C

COc1cc2ccncc2cc1O
inactive: dose: 3.13 mg/kg/injection, schedule: Q04DX003 (ip), vehicle: water 97 % of control | dose: 6.25 mg/kg/injection, schedule: Q04DX003 (ip), vehicle: water 97 % of control | dose: 12.5 mg/kg/injection, schedule: Q04DX003 (ip), vehicle: water 94 % of control | dose: 25.0 mg/kg/injection, schedule: Q04DX003 (ip), vehicle: water 94 % of control | dose: 50.0 mg/kg/injection, schedule: Q04DX003 (ip), vehicle: water 101 % of control

CN=NNCc1ccccc1
inactive: dose: 12.5 mg/kg/injection, schedule: Q01DX005 (ip), vehicle: saline 117 % of control | dose: 25.0 mg/kg/injection, schedule: Q01DX005 (ip), vehicle: saline 86 % of control

C/C(=C\c1ccc(Cl)cc1)C(C)(C)C(=O)O
inactive: [1] 104 % of control | [2] 102 % of control | [3] 95 % of control

CC[C@H](c1ccc(O)cc1)[C@@H](CC)c1ccc(O)cc1
inactive: [4] 90 % of control | [5] 100 % of control | dose: 100.0 mg/kg/injection, schedule: Q04DX003 (ip), vehicle: other 100 % of control | dose: 132.0 mg/kg/injection, schedule: Q04DX003 (ip), vehicle: Klucel (hydroxypropylcellulose) (HPC) 104 % of control and 120 % of control | [6] 104 % of control | [7] 104 % of control and 120 % of control | dose: 300.0 mg/kg/injection, schedule: Q04DX003 (ip), vehicle: Klucel (hydroxypropylcellulose) (HPC) 109 % of control and 110 % of control | dose: 400.0 mg/kg/injection, schedule: Q04DX003 (ip), vehicle: other 105 % of control

CCN(Cc1ccccc1)c1ccc(/C=C/c2nccc3ccccc23)cc1
inactive: dose: 100.0 mg/kg/injection, schedule: Q04DX002 (ip), vehicle: saline with Tween-80 116 % of control | dose: 200.0 mg/kg/injection, schedule: Q04DX002 (ip), vehicle: saline with Tween-80 116 % of control | dose: 266.0 mg/kg/injection, schedule: Q04DX002 (ip), vehicle: saline with Tween-80 89 % of control | dose: 400.0 mg/kg/injection, schedule: Q04DX002 (ip), vehicle: saline with Tween-80 123 % of control | dose: 600.0 mg/kg/injection, schedule: Q04DX002 (ip), vehicle: saline with Tween-80 117 % of control

Cc1ccc(CC2NC(=O)NC2=O)cc1 (stereo unspecified)
inactive: dose: 6.25 mg/kg/injection, schedule: Q01DX009 (ip), vehicle: saline with Tween-80 104 % of control | dose: 12.5 mg/kg/injection, schedule: Q01DX009 (ip), vehicle: saline with Tween-80 88 % of control and 99 % of control | dose: 25.0 mg/kg/injection, schedule: Q01DX009 (ip), vehicle: saline with Tween-80 90 % of control and 98 % of control | [1] 98 % of control and 120 % of control | [8] 122 % of control | [2] 87 % of control and 118 % of control | [9] 122 % of control | [3] 111 % of control | [10] 105 % of control | dose: 400.0 mg/kg/injection, schedule: Q01DX009 (ip), vehicle: saline with Tween-80 96 % of control | [11] 105 % of control

Cc1ccc(C)c(NC(=O)c2ccccc2N)c1
inactive: [5] 100 % of control | [12] 104 % of control | [6] 100 % of control | [7] 104 % of control | [13] 90 % of control | [14] 104 % of control

BrC1C2CC3C(C2)C13 (stereo unspecified)
inactive: [5] 100 % of control | [6] 86 % of control | [13] 109 % of control

O=[N+]([O-])c1cc[n+]([O-])c(Br)c1
inactive: [1] 90 % of control | [9] 100 % of control | [3] 87 % of control | [10] 90 % of control

Nc1nc(N)c2cc(S(=O)(=O)c3ccc4ccccc4c3)ccc2n1
inactive: [4] 90 % of control | [5] 109 % of control | [12] 90 % of control | [6] 95 % of control | [7] 104 % of control | [14] 104 % of control

COc1ccc(C(=O)CC(=O)CC(=O)c2ccccc2)cc1
inactive: [6] 86 % of control | [13] 90 % of control

CN1C(=O)C(=O)c2ccccc21
inactive: [1] 94 % of control | [2] 97 % of control | [3] 93 % of control

Cc1ccc2c(C)c3ccc4ccccc4c3c[n+]2c1
inactive: dose: 20.0 mg/kg/injection, schedule: Q04DX003 (ip), vehicle: saline 118 % of control | dose: 40.0 mg/kg/injection, schedule: Q04DX003 (ip), vehicle: saline 118 % of control

O=C(O)c1cccc(S(=O)(=O)N(CCO)CCO)c1
inactive: [8] 100 % of control | [9] 90 % of control | [10] 95 % of control

C=CCOCCN1CCN(CCCN2c3ccccc3Sc3ccc(C(F)(F)F)cc32)CC1
inactive: dose: 5.0 mg/kg/injection, schedule: Q04DX003 (ip), vehicle: saline 104 % of control | dose: 10.0 mg/kg/injection, schedule: Q04DX003 (ip), vehicle: saline 121 % of control

CCOC(=O)C(=CN1CCCCC1)C(=O)OCC
inactive: [9] 95 % of control | [10] 100 % of control | [11] 100 % of control

CCCCCCCCCCCCOc1ccc(C)cc1
inactive: [9] 109 % of control | [10] 100 % of control | [11] 100 % of control
